Laboratory results reported in EP1283052A1, “Pharmaceutical composition containing caspase-8 and /or caspase-9 useful for overcoming glucocorticoid- and cancer therapy-induced apoptosis of tumours” (Deutsches Krebsforschungszentrum Stiftung des öffentlichen …, priority 2001, dated 2003).

Tests used:
Format in all cases: cell-based, human
[1] = system: P5 and HeLa cervix carcinoma cells; assay: Apoptosis by annexin-V/FITC staining and flow cytometry in cervix carcinoma cells; settings: cisplatin 2 µg/ml, absence of DEX, 24-72 h; Fig. 1b
Description: • (a) Human epidermoid lung cancer cells (P693) were injected into nude mice. At a tumour volume of 500 mm^3 weekly treatment with cisplatin (5mg/kg/week) was started. Cisplatin was injected intraperitoneally in the absence (CIS) or presence (DEX/CIS) of DEX which was added to the drinking water (0.28 mg/L) for the duration of the experiment. […] As controls, tumor growth of xenografts from mice which received neither cisplatin nor DEX (CO) or from mice which received DEX only (DEX) was determined. The tumour volume in each animal was measured at weekly intervals for a period of 5 weeks. Data are presented as the means +/- SD of 6 to 8 animals. • (b) The human cervical carcinoma cell lines HeLa and P5 were γ-irradiated (10 Gy) or treated with cisplatin (2 µg/ml) in the absence (white bars) or presence (black bars) of DEX (1 µM). The percentage of apoptosis was measured in untreated (CO) and stimulated cells by annexin-staining and FACS-analysis at the time points indicated. (c) P5, P693 and human leukemic T cells (CEM) cells were treated with cisplatin (2 µg/ml) in the absence or presence of DEX as indicated. 24 and 48 h following treatment cells were lysed and caspase-3 activity was determined by a fluorescent caspase-3 assay and spectroscopy.

caspase-8 = assay: Fluorometric caspase-8 activity assay in P693 cells; settings: cisplatin 2 µg/ml alone, Fig. 2b
Description: • (a) Left: P5 an CEM cells were treated with cisplatin (1-5 µg/ml) in the absence or presence of DEX (1 µM) as indicated. Proteins were extracted and expression of CD95-L, TRAIL or TNF-α was detected by Western blot analysis. The size of the proteins in kDa is indicated. Right: HeLa and P5 were treated with CD95 agonistic antibody αAPO-1 (CD95, 1 µg/ml), recombinant TRAIL protein (TRAIL, 100 ng/ml) or recombinant TNF-α protein (TNF-α, 100 ng/ml) in the absence (white bars) or presence (black bars) of DEX (1 µM). 24 h later the percentage of apoptosis was determined by annexin-staining and FACS-analysis in untreated (CO) and stimulated cells at the time points indicated. • (b) P693 and CEM cells were treated with cisplatin (2 µg/ml) in the absence or presence of DEX as indicated. 24 and 48 h following treatment cells were lysed and caspase-8 activity was determined by a fluorescent caspase-8 assay and spectroscopy. • (c) P5 cells were stable transfected with empty vector (pcDNA3), or pcDNA3 vector encoding dominant negative FADD protein (FADD-DN). Proteins were extracted from both cell lines and expression of wildtype (WT) and FADD-DN (DN) was detected by Western blot. Left: Stable transfected P5 cells were treated with αAPO-1 (1 µg/ml) and 24 h later apoptosis was determined by staining with annexin/propidium iodide and flow-cytometry. […]

caspase-9 = assay: Caspase-9 expression in leukemic T cells; settings: cisplatin, data not shown

N.N.[Cl][Pt][Cl] [cisplatin]
apoptosis [1]: detectable 24 h following treatment and increased during the next 48 and 72 h | activity of caspase-8 (caspase-8): induced 48 h following treatment | expression of caspase-9 (caspase-9): neither induced
